These compounds were tested against T1, human plasma protein factor Xa (Homo sapiens, UniProt P00742) (assay: Factor Xa IC50 determination (cleavage of chromogenic substrate S-2765)). Settings: fXa 1 nM, S-2765 100 μM, Tris buffered saline pH 7.4, room temperature.
T1 construct: measure proteolytic activity of the enzyme (factor Xa); purchased Haematologic Technologies (Essex Junction, Vt.); host or cells: human plasma
Format: biochemical
Procedure, shortened: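 Human plasma factor Xa (1 nM) preincubated 5 min at room temperature with inhibitor (0.01 nM–10 μM final) in Tris-buffered saline pH 7.4 with CaCl2, BSA and 5% DMSO. S-2765 added at 100 μM; pNA release at 405 nm over 2 min; initial velocities fitted to four-parameter equation for IC50, duplicates.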

T1 sequence (P00742 235-488 limits assumed): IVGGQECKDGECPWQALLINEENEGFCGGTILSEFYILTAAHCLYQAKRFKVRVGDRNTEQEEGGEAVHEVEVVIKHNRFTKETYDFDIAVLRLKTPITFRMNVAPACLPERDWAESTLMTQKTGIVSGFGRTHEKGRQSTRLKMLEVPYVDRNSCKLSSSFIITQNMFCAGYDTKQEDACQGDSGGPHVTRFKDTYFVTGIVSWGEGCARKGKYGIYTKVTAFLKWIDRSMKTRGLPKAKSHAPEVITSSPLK
T1 sequence (P00742 41-179 partner limits assumed): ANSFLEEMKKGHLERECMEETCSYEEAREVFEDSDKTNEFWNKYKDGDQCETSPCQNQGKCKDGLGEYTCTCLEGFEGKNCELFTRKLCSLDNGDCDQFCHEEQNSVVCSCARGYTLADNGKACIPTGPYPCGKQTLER

Compound	IC50
O=C(Nc1ccc(Cl)cc1)N[C@@H](C(=O)N1CCC(N2CCCCC2=O)CC1)c1ccccc1 [Example 141, (2R) 4-(2-piperidinon-1-yl)piperidin-1-yl-2-phenyl-2-(4-chlorophenylaminocarbonylamino)-acetamide]	≤ 100 nM
O=C(Nc1ccc(Cl)cc1)N[C@@H](C(=O)N1CCC(N2CCOCC2=O)CC1)c1ccccc1 [Example 142, (2R) 4-(3-morpholinon-4-yl)piperidin-1-yl-2-phenyl-2-(4-chlorophenylaminocarbonylamino)-acetamide]	≤ 100 nM
O=C(Nc1ccc(Cl)cc1)NC(C(=O)N1CCC(N2CCOCC2=O)CC1)c1ccccc1Cl (stereo not drawn) [Example 145, 4-(3-morpholinon-4-yl)piperidin-1-yl-2-(2-chlorophenyl)-2-(4-chlorophenylaminocarbonylamino)-acetamide]	≤ 100 nM
O=C(Nc1ccc(Cl)cc1)NC(C(=O)N1CCC(N2CCOCC2=O)CC1)c1ccccc1Br (stereo not drawn) [Example 146, 4-(3-morpholinon-4-yl)piperidin-1-yl-2-(2-bromophenyl)-2-(4-chlorophenylaminocarbonylamino)-acetamide]	100 to 500 nM
Cc1ccccc1C(NC(=O)Nc1ccc(Cl)cc1)C(=O)N1CCC(N2CCOCC2=O)CC1 (stereo not drawn) [Example 147, 4-(3-morpholinon-4-yl)piperidin-1-yl-2-(2-methylphenyl)-2-(4-chlorophenylaminocarbonylamino)-acetamide]	100 to 500 nM
COc1ccccc1C(NC(=O)Nc1ccc(Cl)cc1)C(=O)N1CCC(N2CCN(C)CC2=O)CC1 (stereo not drawn) [Example 151, 4-(4-methyl-2-piperazinon-1-yl)piperidin-1-yl-2-(2-methoxyphenyl)-2-(4-chlorophenylaminocarbonylamino)-acetamide]	≥ 500 nM
COc1ccccc1C(NC(=O)Nc1ccc(Cl)cc1)C(=O)N1CCN(C2CCCNCC2)CC1 (stereo not drawn) [Example 152, 4-(homopiperidin-4-yl)piperazin-1-yl-2-(2-methoxyphenyl)-2-(4-chlorophenylaminocarbonylamino)-acetamide]	≤ 100 nM
COc1ccccc1C(NC(=O)Nc1ccc(Cl)cc1)C(=O)N1CCN(C2CCCN(C)CC2)CC1 (stereo not drawn) [Example 153, 4-(1-methylhomopiperidin-4-yl)piperazin-1-yl-2-(2-methoxyphenyl)-2-(4-chlorophenylaminocarbonylamino)-acetamide]	≤ 100 nM
CN1CCCN(C2CCN(C(=O)[C@H](NC(=O)Nc3ccc(Cl)cc3)c3ccccc3)CC2)CC1 [Example 154, (2R) 4-(4-methylhomopiperazin-1-yl)piperidin-1-yl-2-phenyl-2-(4-chlorophenylaminocarbonylamino)-acetamide]	100 to 500 nM
CN1CCC(C2CCN(C(=O)[C@H](NC(=O)Nc3ccc(Cl)cc3)c3ccccc3)CC2)CC1 [Example 155, (2R) 4-(1-methylpiperidin-4-yl)piperidin-1-yl-2-phenyl-2-(4-chlorophenylaminocarbonylamino)-acetamide]	≤ 100 nM
CN1CCC(N2CCCN(C(=O)[C@H](NC(=O)Nc3ccc(Cl)cc3)c3ccccc3)CC2)CC1 [Example 156, (2R) 4-(1-methylpiperidin-4-yl)homopiperazin-1-yl-2-phenyl-2-(4-chlorophenylaminocarbonylamino)-acetamide]	≥ 500 nM

Further lines, results first:

IC50	Compound
≤ 100 nM	O=C(Nc1ccc(Cl)s1)N[C@H](C(=O)Nc1ccc(-n2ccccc2=O)cc1)c1ccccc1 [Example 139, (2S) N-[4-(2-pyridon-1-yl)phenyl]-2-phenyl-2-(2-chlorothiophen-5-ylaminocarbonylamino)-acetamide]
≤ 100 nM	O=C(Nc1ccc(Cl)cc1)N[C@@H](C(=O)Nc1ccc(-n2ccccc2=O)cc1F)c1ccccc1 [Example 140, (2R) N-[4-(2-pyridon-1-yl)-2-fluorophenyl]-2-phenyl-2-(4-chlorophenylaminocarbonylamino)-acetamide]
≤ 100 nM	O=C(Nc1ccc(Cl)cc1)N[C@@H](C(=O)N1CCC(n2ccccc2=O)CC1)c1ccccc1 [Example 143, (2R) 4-(2-pyridon-1-yl)piperidin-1-yl-2-phenyl-2-(4-chlorophenylaminocarbonylamino)-acetamide]
≤ 100 nM	O=C(Nc1ccc(Cl)cc1)NC(C(=O)N1CCC(N2CCOCC2=O)CC1)c1ccccc1F (stereo not drawn) [Example 144, 4-(3-morpholinon-4-yl)piperidin-1-yl-2-(2-fluorophenyl)-2-(4-chlorophenylaminocarbonylamino)-acetamide]
≤ 100 nM	COc1ccccc1C(NC(=O)Nc1ccc(Cl)cc1)C(=O)N1CCC(N2CCOCC2=O)CC1 (stereo not drawn) [Example 148, 4-(3-morpholinon-4-yl)piperidin-1-yl-2-(2-methoxyphenyl)-2-(4-chlorophenylaminocarbonylamino)-acetamide]
≤ 100 nM	O=C(Nc1ccc(Cl)cc1)NC(C(=O)N1CCC(N2CCCCC2=O)CC1)c1ccccc1F (stereo not drawn) [Example 149, 4-(2-piperidinon-1-yl)piperidin-1-yl-2-(2-fluorophenyl)-2-(4-chlorophenylaminocarbonylamino)-acetamide]
≤ 100 nM	COc1ccccc1C(NC(=O)Nc1ccc(Cl)cc1)C(=O)N1CCC(N2CCCCC2=O)CC1 (stereo not drawn) [Example 150, 4-(2-piperidinon-1-yl)piperidin-1-yl-2-(2-methoxyphenyl)-2-(4-chlorophenylaminocarbonylamino)-acetamide]

— patent US7678913B2, “Ureas as factor Xa inhibitors” (Portola Pharmaceuticals, Inc., priority 2004, dated 2010)
